In patent publication US9682995B2, “Amino-substituted isothiazoles” (BAYER PHARMA AKTIENGESELLSCHAFT, priority 2013, dated 2017):

Experiments:
CDK2/CycE = CDK2/CycE (Homo sapiens (Human), UniProt P24941); assay: CDK2/CycE kinase assay (TR-FRET); assay type: biochemical; settings: 10 μM ATP; read-out: CDK2 avg (IC50 [mol/l])
Text: CDK2/CycE-inhibitory activity of compounds of the present invention was quantified employing the CDK2/CycE TR-FRET assay as described in the following paragraphs.
Recombinant fusion proteins of GST and human CDK2 and of GST and human CycE, expressed in insect cells (Sf9) and purified by Glutathion-Sepharose affinity chromatography, were purchased from ProQinase GmbH (Freiburg, Germany). As substrate for the kinase reaction biotinylated peptide biotin-Ttds-YISPLKSPYKISEG (C-terminus in amid form) was used which can be purchased e.g. form the company JERINI peptide technologies (Berlin, Germany).
For the assay 50 nl of a 100 fold concentrated solution of the test compound in DMSO was pipetted into a black low volume 384 well microtiter plate (Greiner Bio-One, Frickenhausen, Germany), 2 μl of a solution of CDK2/CycE in aqueous assay buffer [50 mM Tris/HCl pH 8.0, 10 mM MgCl2, 1.0 mM dithiothreitol, 0.1 mM sodium ortho-vanadate, 0.01% (v/v) Nonidet-P40 (Sigma)] were added and the mixture was incubated for 15 min at 22° C. to allow pre-binding of the test compounds to the enzyme before the start of the kinase reaction. Then the kinase reaction was started by the addition of 3 μl of a solution of adenosine-tri-phosphate (ATP, 16.7 μM=>final conc. in the 5 μl assay volume is 10 μM) and substrate (1.25 μM=>final conc. in the 5 μl assay volume is 0.75 μM) in assay buffer and the resulting mixture was incubated for a reaction time of 25 min at 22° C. The concentration of CDK2/CycE was adjusted depending of the activity of the enzyme lot and was chosen appropriate to have the assay in the linear range, typical concentrations were in the range of 130 ng/ml. The reaction was stopped by the addition of 5 μl of a solution of TR-FRET detection reagents (0.2 μM streptavidine-XL665 [Cisbio Bioassays, Codolet, France] and 1 nM anti-RB(pSer807/pSer811)-antibody from BD Pharmingen [#558389] and 1.2 nM LANCE EU-W1024 labeled anti-mouse IgG antibody [Perkin-Elmer, product no. AD0077, as an alternative a Terbium-cryptate-labeled anti-mouse IgG antibody from Cisbio Bioassays can be used]) in an aqueous EDTA-solution (100 mM EDTA, 0.2% (w/v) bovine serum albumin in 100 mM HEPES/NaOH pH 7.0).
The resulting mixture was incubated 1 h at 22° C. to allow the formation of complex between the phosphorylated biotinylated peptide and the detection reagents. Subsequently the amount of phosphorylated substrate was evaluated by measurement of the resonance energy transfer from the Eu-chelate to the streptavidine-XL. Therefore, the fluorescence emissions at 620 nm and 665 nm after excitation at 350 nm was measured in a TR-FRET reader, e.g. a Rubystar (BMG Labtechnologies, Offenburg, Germany) or a Viewlux (Perkin-Elmer). The ratio of the emissions at 665 nm and at […] was taken as the measure for the amount of phosphorylated substrate. The data were normalised (enzyme reaction without inhibitor=0% inhibition, all other assay components but no enzyme=100% inhibition).

HeLa = assay: Proliferation assay (crystal violet), HeLa; assay type: cell-based; settings: Homo sapiens, 96 h, 4 days, read-out: Inhibition of proliferation IC50 HeLa
Procedure: Cultivated tumor cells (cells were ordered from ATCC, except HeLa-MaTu and HeLa-MaTu-ADR, which were ordered from EPO-GmbH, Berlin) were plated at a density of 1000 to 5000 cells/well, depending on the growth rate of the respective cell line, in a 96-well multititer plate in 200 μL of their respective growth medium supplemented 10% fetal calf serum. After 24 hours, the cells of one plate (zero-point plate) were stained with crystal violet (see below), while the medium of the other plates was replaced by fresh culture medium (200 μl), to which the test substances were added in various concentrations (0 μM, as well as in the range of 0.001-10 μM; the final concentration of the solvent dimethyl sulfoxide was 0.5%). The cells were incubated for 4 days in the presence of test substances. Cell proliferation was determined by staining the cells with crystal violet: the cells were fixed by adding 20 μl/measuring point of an 11% glutaric aldehyde solution for 15 minutes at room temperature. After three washing cycles of the fixed cells with water, the plates were dried at room temperature. The cells were stained by adding 100 μl/measuring point of a 0.1% crystal violet solution (pH 3.0). After three washing cycles of the stained cells with water, the plates were dried at room temperature. The dye was dissolved by adding 100 μl/measuring point of a 10% acetic acid solution. Absorption was determined by photometry at a wavelength of 595 nm. The change of cell number, in percent, was calculated by normalization of the measured values to the absorption values of the zero-point plate (=0%) and the absorption of the untreated (0 μm) cells (=100%). The IC50 values were determined by means of a 4 parameter fit.

| Structure (SMILES) | IC50 (CDK2/CycE) [µM] | IC50 (HeLa) [µM] |
| --- | --- | --- |
| Cc1nsc(Nc2cncc(N(C)C)n2)c1C(=O)Nc1ccc(F)c(F)c1 [Example 105, N-(3,4-Difluorophenyl)-5-{[6-(dimethylamino)pyrazin-2-yl]amino}-3-methyl-1,2-thiazole-4-carboxamide] | > 20 | 10 |
| Cc1nsc(Nc2ncc(C(=O)N(C)C)s2)c1C(=O)Nc1ccc(F)c(F)c1 [Example 49, N-(3,4-Difluorophenyl)-5-{[5-(dimethylcarbamoyl)-1,3-thiazol-2-yl]amino}-3-methyl-1,2-thiazole-4-carboxamide] | > 20 | 4.4 |
| Cc1nsc(Nc2cncc(C(=O)N3CCOCC3)n2)c1C(=O)Nc1ccc(F)c(F)c1 [Example 107, N-(3,4-Difluorophenyl)-3-methyl-5-{[6-(morpholin-4-ylcarbonyl)pyrazin-2-yl]amino}-1,2-thiazole-4-carboxamide] | > 20 | 4.9 |
| COc1ccc(NC(=O)c2c(C)nsc2Nc2cnc3c(F)c(F)ccc3n2)cn1 [Example 43, 5-[(5,6-Difluoroquinoxalin-2-yl)amino]-N-(6-methoxypyridin-3-yl)-3-methyl-1,2-thiazole-4-carboxamide] | > 20 | 0.42 |
| COc1ncc(NC(=O)c2c(C)nsc2Nc2ccc(C#N)cn2)cc1C [Example 120, 5-[(5-Cyanopyridin-2-yl)amino]-N-(6-methoxy-5-methylpyridin-3-yl)-3-methyl-1,2-thiazole-4-carboxamide] | > 20 | 1.9 |
| CCNC(=O)c1csc(Nc2snc(C)c2C(=O)Nc2ccc(F)c(F)c2)n1 [Example 99, N-(3,4-Difluorophenyl)-5-{[4-(ethylcarbamoyl)-1,3-thiazol-2-yl]amino}-3-methyl-1,2-thiazole-4-carboxamide] | > 20 | 3.3 |
| Cc1nsc(Nc2ccc(C#N)cn2)c1C(=O)Nc1ccc(OC(C)C)nc1 [Example 110, 5-[(5-Cyanopyridin-2-yl)amino]-N-(6-isopropoxyridin-3-yl)-3-methyl-1,2-thiazole-4-carboxamide] | > 20 | 1.5 |
| Cc1nsc(Nc2cnc3ccccc3n2)c1C(=O)Nc1ccc(Oc2ccccc2)nc1 [Example 112, 3-Methyl-N-(6-phenoxypyridin-3-yl)-5-(quinoxalin-2-ylamino)-1,2-thiazole-4-carboxamide] | > 20 | 2 |
| Cc1nsc(Nc2cnc3cc(F)ccc3n2)c1C(=O)Nc1ccc(F)c(F)c1 [Example 46, N-(3,4-Difluorophenyl)-5-[(6-fluoroquinoxalin-2-yl)amino]-3-methyl-1,2-thiazole-4-carboxamide] | > 20 | 0.13 |
| CCOC(=O)c1coc(Nc2snc(C)c2C(=O)Nc2ccc(F)c(F)c2)n1 [Example 98, Ethyl 2-({4-[(3,4-difluoro-phenyl)carbamoyl]-3-methyl-1,2-thiazol-5-yl}amino)-1,3-oxazole-4-carboxylate] | > 20 | 10 |
| CCc1ccccc1NC(=O)c1c(C)nsc1Nc1cnc2cc(F)ccc2n1 [Example 20, N-(2-Ethylphenyl)-5-[(6-fluoroquinoxalin-2-yl)amino]-3-methyl-1,2-thiazole-4-carboxamide] | > 20 | 1.1 |
| Cc1nsc(Nc2cnc3ccccc3n2)c1C(=O)Nc1ccc(Oc2ccc(F)cc2F)nc1 [Example 113, N-[6-(2,4-Difluorophenoxy)pyridin-3-yl]-3-methyl-5-(quinoxalin-2-ylamino)-1,2-thiazole-4-carboxamide] | > 20 | 0.88 |
| COC(=O)c1cnc(Nc2snc(C)c2C(=O)Nc2ccc(F)c(F)c2)o1 [Example 97, Methyl 2-({4-[(3,4-difluoro-phenyl)carbamoyl]-3-methyl-1,2-thiazol-5-yl}amino)-1,3-oxazole-5-carboxylate] | > 20 | 10 |
| COc1ccc(NC(=O)c2c(C)nsc2Nc2cnc3cc(C(F)(F)F)ccc3n2)cn1 [Example 45, N-(6-Methoxypyridin-3-yl)-3-methyl-5-{[6-(trifluoromethyl)quinoxalin-2-yl]amino}-1,2-thiazole-4-carboxamide] | > 20 | 0.34 |

The next lines start with the values.

| IC50 (CDK2/CycE) [µM] | IC50 (HeLa) [µM] | Structure (SMILES) |
| --- | --- | --- |
| > 20 | 0.56 | Cc1nsc(Nc2cnc3ccccc3n2)c1C(=O)Nc1ccc(Cl)c(F)c1 [Example 40, N-(4-Chloro-3-fluorophenyl)-3-methyl-5-(quinoxalin-2-ylamino)-1,2-thiazole-4-carboxamide] |
| > 20 | > 10 | COc1ccc(NC(=O)c2c(C)nsc2Nc2cc(C#N)ccn2)cn1 [Example 25, 5-[(4-Cyanopyridin-2-yl)amino]-N-(6-methoxypyridin-3-yl)-3-methyl-1,2-thiazole-4-carboxamide] |
| > 20 | 8.8 | CCc1ccccc1NC(=O)c1c(C)nsc1Nc1cnccn1 [Example 1, N-(2-Ethylphenyl)-3-methyl-5-(pyrazin-2-ylamino)-1,2-thiazole-4-carboxamide] |
| > 20 | > 10 | CCc1ccnc(Nc2snc(C)c2C(=O)Nc2ccccc2CC)n1 [Example 17, N-(2-Ethylphenyl)-5-[(4-ethylpyrimidin-2-yl)amino]-3-methyl-1,2-thiazole-4-carboxamide] |
| > 20 | 2.1 | Cc1nsc(Nc2cc(C#N)ccn2)c1C(=O)Nc1ccc(Oc2ccccc2)nc1 [Example 111, 5-[(4-Cyanopyridin-2-yl)amino]-3-methyl-N-(6-phenoxypyridin-3-yl)-1,2-thiazole-4-carboxamide] |
| > 20 | 9.9 | COc1ccc(NC(=O)c2c(C)nsc2Nc2ncccc2C#N)cn1 [Example 36, 5-[(3-Cyanopyridin-2-yl)amino]-N-(6-methoxypyridin-3-yl)-3-methyl-1,2-thiazole-4-carboxamide] |
| > 20 | 1.3 | CCc1ccccc1NC(=O)c1c(C)nsc1Nc1cnc2ccc(Cl)cc2n1 [Example 41, 5-[(7-Chloroquinoxalin-2-yl)amino]-N-(2-ethylphenyl)-3-methyl-1,2-thiazole-4-carboxamide] |
| > 20 | > 10 | COC(=O)c1ccc(Nc2snc(C)c2C(=O)Nc2ccc(OC)nc2)nc1 [Example 31, Methyl 6-({4-[(6-methoxypyridin-3-yl)carbamoyl]-3-methyl-1,2-thiazol-5-yl}amino)-nicotinate] |
| > 20 | 1.8 | Cc1nsc(Nc2cnc3ccccc3n2)c1C(=O)Nc1ccc(OC(C)C)nc1 [Example 122, N-(6-Isopropoxypyridin-3-yl)-3-methyl-5-(quinoxalin-2-ylamino)-1,2-thiazole-4-carboxamide] |
| > 20 | 3 | CCc1ccccc1NC(=O)c1c(C)nsc1Nc1ccc(C#N)cn1 [Example 7, 5-[(5-Cyanopyridin-2-yl)amino]-N-(2-ethylphenyl)-3-methyl-1,2-thiazole-4-carboxamide] |
